US20090239926A1, “METHODS FOR THE TREATMENT OF PSORIASIS OR PSORIATIC ARTHRITIS USING CYCLOPROPYL-N-CARBOXAMIDE” (priority 2008, published 2009)

Test system: mAB/LPS-induced experimental arthritis in male BALB/c mice
Test: mAb/LPS-induced mice arthritis model
Assay type: in vivo
Conditions: Enbrel 5 mg/kg/day IP
Experimental: Treatment Regimen: Compound A was administered by oral gavage (PO), using a suitable stainless steel feeding needle. Enbrel (Reference Item) was administrated by intraperitoneal (IP) injections. Compound A was first administered on study Day 3 (one hour prior to the single LPS injection) and thereafter on Days 4, 5, 6, 7, 8, 9, 10, 11, 12 and 13 (total of 11 successive treatment days) at 1, 5 and 25 mg/kg once daily. Compound A treated groups comprised n=8 BALB/c male mice per dosing group. In addition, two equally sized groups were treated with either Enbrel (5 mg/kg/day, Reference Item), or a solution of 0.5% Na CMC/0.25% Tween 80 (PO, 5 ml/kg, Vehicle Control).
Arthritis Reactions: Both hind paws (left and right) of each animal were examined for signs of arthritogenic responses prior to arthritis induction (Day 0) and thereafter on study days 4, 5, 6, 7, 9, 11 & 14 as selected by the Sponsor. Arthritis reactions were scored and recorded according to a 0-4 scale in ascending order of severity (based on Morwell MD Biosciences Inc. brochure) as shown in Table 1.
Measurements of Experimental Arthritis: Hind paw thickness was determined on eight days using a Mitutoyo Electronic Digital Caliper (on Days 0, 4, 5, 6, 7, 9, 11 and 14) and presented as mean group values of the average for both left and right hind paws.

[1] = Day 0 (prior to arthritis induction)

Enbrel
Arthritis Scoring, mean of both hind paws (0-4 scale) [1]: 0 | Hind Paws Thickness, group mean [1]: 2.2 mm | Arthritis Scoring, mean of both hind paws (0-4 scale) (Day 4): 0 | Hind Paws Thickness, group mean (Day 4): 2.2 mm | Percentage Change in Hind Paw Thickness vs. Study Commencement (Day 0), group mean (Day 4): 0% | Arthritis Scoring, mean of both hind paws (0-4 scale) (Day 5): 1 | Hind Paws Thickness, group mean (Day 5): 2.3 mm | Percentage Change in Hind Paw Thickness vs. Study Commencement (Day 0), group mean (Day 5): 6% | Arthritis Scoring, mean of both hind paws (0-4 scale) (Day 6): 1 | Hind Paws Thickness, group mean (Day 6): 2.5*↓ mm | Percentage Change in Hind Paw Thickness vs. Study Commencement (Day 0), group mean (Day 6): 13% | Arthritis Scoring, mean of both hind paws (0-4 scale) (Day 7): 1**↓ | Hind Paws Thickness, group mean (Day 7): 2.5**↓ mm | Percentage Change in Hind Paw Thickness vs. Study Commencement (Day 0), group mean (Day 7): 12**↓ % | Arthritis Scoring, mean of both hind paws (0-4 scale) (Day 9): 1***↓ | Hind Paws Thickness, group mean (Day 9): 2.3**↓ mm | Percentage Change in Hind Paw Thickness vs. Study Commencement (Day 0), group mean (Day 9): 7**↓ % | Arthritis Scoring, mean of both hind paws (0-4 scale) (Day 11): 0***↓ | Hind Paws Thickness, group mean (Day 11): 2.3**↓ mm | Percentage Change in Hind Paw Thickness vs. Study Commencement (Day 0), group mean (Day 11): 4**↓ % | Arthritis Scoring, mean of both hind paws (0-4 scale) (Day 14): 0**↓ | Hind Paws Thickness, group mean (Day 14): 2.3**↓ mm | Percentage Change in Hind Paw Thickness vs. Study Commencement (Day 0), group mean (Day 14): 4**↓ %
